Results: publication PMC6556873, “Rapid Covalent-Probe Discovery by Electrophile-Fragment Screening” (Journal of the American Chemical Society, 2019)
Where two headings read alike, the source gives them in different places.

Experiments:
[1] = in vitro; parameters: species or system CCD841, HEK293; conditions: human, hb2 cells, read-out: HB-2 Cells Viability (%)
[2] = in vitro; parameters: species or system HB2, HEK293; conditions: human, ccd841 cells
[3] = in vitro; parameters: species or system HB2, CCD841; conditions: human, hek293 cells
[4] = biological target: T1, PCAF (Homo sapiens, UniProt Q92831); parameters: Intact protein LC/MS covalent labelling, fragments in pools of five, 200 uM each, 4 °C; conditions: 24 h, 4 °C, pool of five; 200 µM; covalent
T1 construct: gene KAT2B

[5] = biological target: T2, BSA (Bos taurus, UniProt P02769); parameters: Intact protein LC/MS covalent labelling, fragments in pools of five, 200 uM each, 4 °C; conditions: 24 h, 4 °C, pool of five; 200 µM; covalent
T2 construct: gene ALB

[6] = biological target: T3, OTUB2 (OTUB2A) (Homo sapiens, UniProt Q96DC9); parameters: Intact protein LC/MS covalent labelling, fragments in pools of five, 200 uM each, 4 °C; conditions: 24 h, 4 °C, pool of five; 200 µM; covalent
T3 construct: full length residues 1-234, E. coli BL21(DE3)-R3, His tag removed by TEV, construct 27312 Da
T3 sequence (Q96DC9 1-234): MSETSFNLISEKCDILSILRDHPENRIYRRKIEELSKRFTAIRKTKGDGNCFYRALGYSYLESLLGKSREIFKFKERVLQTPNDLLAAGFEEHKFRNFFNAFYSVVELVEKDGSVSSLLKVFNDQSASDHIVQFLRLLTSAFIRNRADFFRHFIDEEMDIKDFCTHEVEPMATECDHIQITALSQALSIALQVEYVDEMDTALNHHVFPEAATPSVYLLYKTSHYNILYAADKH

[7] = biological target: T4, NUDT7 (Homo sapiens, UniProt P0C024); parameters: Intact protein LC/MS covalent labelling, fragments in pools of five, 200 uM each, 4 °C; conditions: 24 h, 4 °C, pool of five; 200 µM; covalent
T4 construct: residues 14-235, E. coli, pNIC28-Bsa4, N-terminal His6 tag removed by TEV, construct 26672 Da
T4 sequence (P0C024 14-235): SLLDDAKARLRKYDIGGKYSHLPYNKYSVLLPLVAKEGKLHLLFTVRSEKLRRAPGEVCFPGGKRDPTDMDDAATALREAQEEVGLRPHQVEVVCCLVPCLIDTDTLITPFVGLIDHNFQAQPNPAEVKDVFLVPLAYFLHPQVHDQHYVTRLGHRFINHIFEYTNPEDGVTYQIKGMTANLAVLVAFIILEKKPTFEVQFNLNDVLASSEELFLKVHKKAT

T1 sequence (Q92831 whole entry, the tested form may be a part): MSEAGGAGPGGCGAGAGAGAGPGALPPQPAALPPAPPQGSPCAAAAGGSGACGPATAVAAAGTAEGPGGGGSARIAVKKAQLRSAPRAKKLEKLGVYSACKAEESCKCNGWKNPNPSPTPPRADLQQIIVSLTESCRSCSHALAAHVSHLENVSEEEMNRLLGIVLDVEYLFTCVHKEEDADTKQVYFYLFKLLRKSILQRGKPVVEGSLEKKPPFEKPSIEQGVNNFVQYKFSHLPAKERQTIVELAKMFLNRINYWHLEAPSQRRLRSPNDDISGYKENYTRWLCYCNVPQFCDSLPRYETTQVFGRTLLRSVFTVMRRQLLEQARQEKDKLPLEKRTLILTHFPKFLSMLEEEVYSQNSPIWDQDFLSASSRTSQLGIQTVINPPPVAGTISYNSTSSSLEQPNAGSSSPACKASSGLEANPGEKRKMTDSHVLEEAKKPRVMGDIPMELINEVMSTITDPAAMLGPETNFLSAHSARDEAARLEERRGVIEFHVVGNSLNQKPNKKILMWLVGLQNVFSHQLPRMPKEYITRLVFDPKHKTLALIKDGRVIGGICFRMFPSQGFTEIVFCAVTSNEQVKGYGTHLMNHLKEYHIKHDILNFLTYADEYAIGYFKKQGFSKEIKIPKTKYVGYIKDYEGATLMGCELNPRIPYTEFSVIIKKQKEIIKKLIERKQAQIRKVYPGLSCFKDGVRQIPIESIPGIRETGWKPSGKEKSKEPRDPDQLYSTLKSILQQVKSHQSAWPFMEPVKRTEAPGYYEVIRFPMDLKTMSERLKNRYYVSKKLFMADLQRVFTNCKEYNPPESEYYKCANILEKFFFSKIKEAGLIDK
T2 sequence (P02769 whole entry, the tested form may be a part): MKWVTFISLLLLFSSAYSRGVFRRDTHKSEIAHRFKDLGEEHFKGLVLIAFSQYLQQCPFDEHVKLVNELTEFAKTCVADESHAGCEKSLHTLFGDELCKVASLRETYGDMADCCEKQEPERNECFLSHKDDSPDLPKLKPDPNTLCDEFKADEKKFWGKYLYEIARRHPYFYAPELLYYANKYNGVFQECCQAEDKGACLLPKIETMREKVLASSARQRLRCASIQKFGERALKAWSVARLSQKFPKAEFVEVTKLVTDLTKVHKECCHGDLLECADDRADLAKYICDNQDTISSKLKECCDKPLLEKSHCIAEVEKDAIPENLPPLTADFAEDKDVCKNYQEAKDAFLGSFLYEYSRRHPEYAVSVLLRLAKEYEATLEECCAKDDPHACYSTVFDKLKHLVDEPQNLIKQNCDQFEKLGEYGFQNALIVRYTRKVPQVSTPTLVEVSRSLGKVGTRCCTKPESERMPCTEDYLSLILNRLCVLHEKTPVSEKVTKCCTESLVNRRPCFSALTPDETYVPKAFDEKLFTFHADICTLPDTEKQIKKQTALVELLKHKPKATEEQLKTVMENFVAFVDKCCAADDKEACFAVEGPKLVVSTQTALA

SMILES	viability at 48 h, 10 µM [1] [%]	viability at 48 h, 10 µM [2] [%]	viability at 48 h, 10 µM [3] [%]	PCAF [4]	BSA [5]	OTUB2 [6]	NUDT7 [7]
C=CC(=O)N1CCC(C(=O)N(C)c2ccccc2)C1 (stereo not drawn) [PCM-0102771]	100	106	72.2	0	0	0	0
CSc1ccc(NC(=O)CCl)cc1 [PCM-0102772]	15.2	51.2	3	0	0	0.28	0.13
Cc1ccc(-c2nnc(C)[nH]2)c(NC(=O)CCl)c1 [PCM-0102775]	61.1	45	53	0	0	0	0.13
Cc1noc(C)c1CNC(=O)CCl [PCM-0102780]	102	94.9	101	0	0	0	0.11
CN(C(=O)CCl)C(C)(C)C#N [PCM-0102782]	95.9	92.5	77.7	0	0	0	0
CC(c1ccc(F)cc1)N(C)C(=O)CCl (stereo not drawn) [PCM-0102783]	47.3	47.8	30.3	0	0	0	0.19
Cc1ccsc1CN(C)C(=O)CCl [PCM-0102785]	22.2	56.7	36	0	0	0	0.2
CC(C)(C)OC(=O)N1CCN(C(=O)CCl)CC1 [PCM-0102786]	85.9	84	68.2	0	0	0	0
CN(Cc1ccccc1F)C(=O)CCl [PCM-0102787]	57.7	72.2	57.9	0	0	0	0
Cc1nc(NC(=O)CCl)sc1-c1ccccc1 [PCM-0102788]	35.7	23.8	26.7	0	0	0.09	0.36
CC1CC(C)CN(C(=O)CCl)C1 (stereo not drawn) [PCM-0102789]	102	83.1	61.8	0	0	0.08	0
O=C(CCl)NCc1cc(F)cc(F)c1 [PCM-0102790]	98.6	71.3	74.1	0	0	0	0
CC(c1nc2ccccc2s1)N(C)C(=O)CCl (stereo not drawn) [PCM-0102793]	4.3	26.1	1	0	0	0.19	0
O=C(CCl)NCC1CCCc2ccccc21 (stereo not drawn) [PCM-0102794]	67.3	66.7	53.5	0	0	0.34	0
CC1CN(C(=O)CCl)CC(C)O1 (stereo not drawn) [PCM-0102796]	92.9	76.2	66.2	0	0	0	0
O=C(CCl)NCc1nc2ccccc2s1 [PCM-0102803]	55.2	63.8	43	0	0	0.37	0
C=CC(=O)N1CCN(C(=O)c2ccc(Br)o2)CC1 [PCM-0102804]	93.5	102	84.7	0	0	0	0

SMILES	viability at 48 h, 10 µM [1] [%]	viability at 48 h, 10 µM [2] [%]	viability at 48 h, 10 µM [3] [%]	PCAF [4]	BSA [5]	OTUB2 [6]	NUDT7 [7]
C=CC(=O)N1CCN(c2cc(C)nc(C)n2)CC1 [PCM-0102806]	101	105	78.9	0	0	0	0
C=CC(=O)N1CCCC2(CNC(=O)O2)C1 (stereo not drawn) [PCM-0102808]	103	113	102	0	0	0.13	0
O=C(CCl)Nc1nc(-c2ccc(F)cc2)cs1 [PCM-0102809]	5.1	63.1	1.7	0	0	0.21	0.37
CNC(=O)C1CCN(C(=O)CCl)CC1 [PCM-0102815]	92.2	95.1	77.1	0	0	0.08	0
CC(C)(C)NC(=O)CNC(=O)CCl [PCM-0102817]	102	87.5	101	0	0	0.41	0
O=C(CCl)NCC12CC3CC(CC(Br)(C3)C1)C2 [PCM-0102819]	109	95	99.3	0	0	0.63	0.05
CC1CCc2ccccc2N1C(=O)CCl (stereo not drawn) [PCM-0102822]	92.2	39.6	54.7	0	0	0	0
O=C(CCl)N1CCC2(CC1)OCCO2 [PCM-0102823]	98.2	99.2	91.5	0	0	0	0
C=CC(=O)NCc1cccc(C(F)(F)F)c1 [PCM-0102825]	97.4	107	82.3	0	0	0	0
O=C(CCl)N1CCCC2CCCCC21 (stereo not drawn) [PCM-0102826]	33.7	32.5	27.9	0	0	0	0.07
COC(=O)C1(NC(=O)CCl)CCC(C)CC1 (stereo not drawn) [PCM-0102827]	102	96.8	93.6	0	0	0	0
CCC1CCCCN1C(=O)CCl (stereo not drawn) [PCM-0102828]	85.9	80.9	69.4	0	0	0	0.04
CC1CN(C(=O)CCl)CCO1 (stereo not drawn) [PCM-0102830]	101	99.1	85.9	0	0	0	0
CC1CCN(C(=O)CCl)C2CCCCC12 (stereo not drawn) [PCM-0102831]	14.7	6.8	5.6	0	0	0	0.37
O=C(CCl)N(C1CC1)C1CCS(=O)(=O)C1 (stereo not drawn) [PCM-0102832]	88.7	85.1	67.9	0	0	0.43	0
CC(C)(C)N(Cc1cccc(F)c1)C(=O)CCl [PCM-0102833]	67.5	25.3	22.2	0	0	0	0
